# Source: US20070270332A1, “METHODS AND ASSAYS USEFUL IN THE TREATMENT OF ALCOHOL DEPENDENCE OR ALCOHOL ABUSE” (priority 1998, published 2007)
# Where two headings read alike, the source gives them in different places.
# What was measured:
# [1] = biological target: T1, Human Mitochondrial ALDH (ALDH-2) (Homo sapiens, UniProt P05091); assay: Inhibition of human mitochondrial ALDH (ALDH-2), competitive and noncompetitive inhibition constants; format: biochemical; details: for ALDH-2 inhibitory potency, in words: comparison with daidzin, daidzein or another compound
# T1 construct: Human, hamster, and rat liver mitochondrial and cytosolic ALDH isozymes were purified as described in Klyosov; from tissue; host or cells: human liver
# T1 sequence (P05091 18-517): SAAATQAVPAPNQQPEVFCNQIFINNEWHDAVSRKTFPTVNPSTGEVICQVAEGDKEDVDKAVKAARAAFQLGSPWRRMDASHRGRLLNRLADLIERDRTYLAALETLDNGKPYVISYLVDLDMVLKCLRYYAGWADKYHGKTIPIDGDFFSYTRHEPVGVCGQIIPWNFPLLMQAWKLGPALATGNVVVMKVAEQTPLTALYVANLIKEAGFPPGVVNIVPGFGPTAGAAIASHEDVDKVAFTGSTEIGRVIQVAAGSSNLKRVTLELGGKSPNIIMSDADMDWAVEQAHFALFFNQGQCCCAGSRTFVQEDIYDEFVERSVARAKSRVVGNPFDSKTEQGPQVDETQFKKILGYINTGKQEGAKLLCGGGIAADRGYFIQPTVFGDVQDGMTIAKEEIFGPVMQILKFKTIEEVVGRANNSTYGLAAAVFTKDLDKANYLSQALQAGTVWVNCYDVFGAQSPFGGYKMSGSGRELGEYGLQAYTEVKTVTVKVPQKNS
# Protocol: Human, hamster, and rat liver mitochondrial and cytosolic ALDH isozymes were purified as described in […] . and Keung, W. […] Stock solutions of all water soluble substrates and test compounds were made in Milli-Q water and all others were in methanol. […] The kinetic parameters Km and Vmax for cytosolic ALDHs have been determined from Lineweaver-Burk plots derived from duplicate determinations of initial velocities whereas those for the mitochondrial isozymes were determined from progress kinetic curves in accordance with the teachings of […] .
# [2] = test system: alcohol preferring Syrian golden hamsters; assay: Ethanol intake suppression (antidipsotropic activity) in alcohol preferring Syrian golden hamsters; details: for ethanol intake suppression: equivalent doses (0.07 meq/hamster/day), FIG. 1; for ETOH Intake Suppression, %: ethanol-preferring golden hamsters, equivalent doses, i.p.; for suppression of hamster ethanol intake: i.p. dose or equivalent doses
# [3] = test system: hamster liver mitochondria (MAO/ALDH pathway, 5-HT as substrate); assay: Mitochondria-catalyzed 5-HT metabolism (5-HIAL, 5-HIAA, 5-HT depletion), hamster liver mitochondria; format: biochemical; details: for inhibition of 5-HIAA formation: isolated hamster liver mitochondria
# Excerpt: (§1) Hamster liver mitochondrial preparations were obtained by the well-known method of Johnson & Lardy (see John, D. & Lardy, H. (1967) Meth. Enzymol. 10, 94). The integrity of these mitochondrial preparations, evaluated by measuring their latent glutamate dehydrogenase activity according to the methods of Beaufay, H., and Bendall, D. S., Baudhuin, P. & deDuve, C. (1959) J. Cell Biol. 73, 623-628 before and after the metabolic study, were over 97% and 93%, respectively.
# (§2) Reactions were initiated by the addition of mitochondria and allowed to proceed in a 37° C. shaking water bath for 30 min. Reactions were terminated by the addition of 0.05 ml each of ice-cold 1 M HClO4 and 10 mM EDTA. The samples were kept on ice for 1 hour followed by centrifugation (12,000 rpm) in a microcentrifuge (Microspin 24S, Sorvall) for 15 min. DA, 5-HT, and their major metabolites in the supernatant were analyzed directly by HPLC.
# The HPLC system used in this study consisted of a BAS Sample Sentinel Autosampler with refrigerated (4° C.) sample compartment, PM80 solvent delivery system, and a LC-26 on-line degasser. The detector is a LC-4C amperometric controller with a CC-5 cross-flow thin-layer (0.005″) electrochemical cell composed of glassy carbon and silver/silver chloride reference electrode (Bioanlytical Systems, Inc., West Lafayette, Ind.). For routine analysis, the potential and sensitivity were set at 650 mV and 20 nA full scale, respectively. Column temperature was maintained with a Waters Temperature Control Module (Waters, Milford, Mass.). DA and 5-HT were analyzed on a BAS phase II ODS-3, 3 μm, 3.2×100 mm column. […] DOPAL, DOPAC, 5-HIAL and 5-HIAA were analyzed on a Beckman ultrasphere ODS-5, 5μ, 4.6×250 mm column. […] Data were collected and analyzed with a Nelson data collection system (Perkin-Elmer) or a Waters 740 Data Module. The effect of a test compound on 5-HIAL or DOPAL accumulation measured at five different concentrations were averaged and presented as % of control.
# [4] = biological target: T1, Human Mitochondrial ALDH (ALDH-2); details: literature; cited from earlier work
# [5] = test system: rats; details: cited from earlier work
# [6] = test system: hamster liver mitochondria (MAO/ALDH pathway, DA as substrate); assay: Mitochondria-catalyzed DA metabolism (DOPAC formation), hamster liver mitochondria; format: biochemical; details: isolated hamster liver mitochondria
# Excerpt: as §1
# as §2, with “The samples were kept on ice for 1 hour followed by centrifugation (12,000 rpm) in a microcentrifuge (Microspin 24S, Sorvall) for 15 min.” left out
# The HPLC system used in this study consisted of a BAS Sample Sentinel Autosampler with refrigerated (4° C.) sample compartment, PM80 solvent delivery system, and a LC-26 on-line degasser. […] DA and 5-HT were analyzed on a BAS phase II ODS-3, 3 μm, 3.2×100 mm column. […] DOPAL, DOPAC, 5-HIAL and 5-HIAA were analyzed on a Beckman ultrasphere ODS-5, 5μ, 4.6×250 mm column. […] Data were collected and analyzed with a Nelson data collection system (Perkin-Elmer) or a Waters 740 Data Module. The effect of a test compound on 5-HIAL or DOPAL accumulation measured at five different concentrations were averaged and presented as % of control.
# [7] = test system: rat liver mitochondria; assay: Mitochondria-catalyzed 5-HIAA formation, rat liver mitochondria; details: same concentration range
# [8] = human mitochondrial ALDH, read-out: ALDH-2 Ki (competitive inhibition constant)
# [9] = human mitochondrial ALDH, read-out: ALDH-2 αKi (noncompetitive inhibition constant)
SMILES,"Ki [1, 8]","Ki [1, 9]",ethanol intake suppression [2],"ETOH Intake Suppression, % [2]",also measured
"O=C(CBr)Oc1ccc2c(=O)c(-c3ccc(O)cc3)coc2c1 [Compound 17, 7-O-daidzein-2-bromoacetate]",1800 nM,20000 nM,,,"ALDH-2 inhibitory potency, in words [1]: less potent inhibitors relative to daidzin"
O=c1c(-c2ccc(O)cc2)coc2cc(O)cc(O)c12 [genestein],,,did not suppress ethanol intake,,
"O=c1cc(-c2ccccc2)oc2cc(O)cc(O)c12 [Compound 21, Chrysin, reference compound]",35000 nM,110000 nM,,0%,
"O=C(O)CCCCCOc1ccc2c(=O)c(-c3ccc(O)cc3)coc2c1 [Compound 3, 7-O-[ω-carboxypentyl]-daidzein]",,,,70%,suppression of hamster ethanol intake [2]: about 70%
CCOc1ccc2c(=O)c(-c3ccc(O)cc3)coc2c1 [Compound 7],35 nM,560 nM,did not suppress ethanol intake,,
"CC[N+](CC)(CC)CCOc1ccc2c(=O)c(-c3ccc(O)cc3)coc2c1 [Compound 15, 7-O-(triethyl-6-aminoethyl)-daidzein]",80 nM,1600 nM,,,
"CN(C)CCC(=O)Oc1ccc2c(=O)c(-c3ccc(O)cc3)coc2c1 [Compound 18, 7-O-daidzein-3-dimethylaminopropionate]",1750 nM,24000 nM,,,"ALDH-2 inhibitory potency, in words [1]: less potent inhibitors relative to daidzin"
"O=C(O)CCCCCCOc1ccc2c(=O)c(-c3ccc(O)cc3)coc2c1 [Compound 4, 7-O-[ω-carboxyhexyl]-daidzein]",9 nM,140 nM,,69%,suppression of hamster ethanol intake [2]: about 70%
O=C(O)CCCCCCCCCCOc1ccc2c(=O)c(-c3ccc(O)cc3)coc2c1 [Compound 6],,,,86%,
"O=c1cc(-c2ccccc2)oc2c(O)c(O)ccc12 [Compound 22, 7,8-Dihydroxyflavone]",35000 nM,270000 nM,did not suppress ethanol intake,0%,suppression of hamster ethanol intake [2]: do not exert any significant effect on ethanol intake
O=c1c(-c2ccc(O)cc2)coc2cc(OCCC3OCCCO3)ccc12 [Compound 8],,,−30%,32%,
"O=c1c(-c2ccc(O)cc2)coc2cc(OCCCCCCBr)ccc12 [Compound 10, 7-O-(6-bromohexyl)-daidzein]",,70 nM,only marginally active,14%,"Ki ([1]; read-out: Ki, human ALDH-2): 3 nM"
"O=c1c(-c2ccc(O)cc2)coc2cc(O)ccc12 [Compound 1, daidzein]",,,−30%,32%,suppression of hamster ethanol intake [2]: 32%
O=C(O)CCCCCCCCCOc1ccc2c(=O)c(-c3ccc(O)cc3)coc2c1 [Compound 5],4 nM,50 nM,,84%,
"O=c1c(-c2ccc(O)cc2)coc2cc(O[C@@H]3O[C@H](CO)[C@@H](O)[C@H](O)[C@H]3O)ccc12 [Compound 2, daidzin]",,,> 60%,64%,effect on mitochondria-catalyzed 5-HT depletion ([3]; at concentrations that significantly inhibit 5-HIAA formation): little or no effect; inhibition of 5-HIAA formation [3]: potently inhibit the formation of 5-hydroxyindole-3-acetic acid (5-HIAA); inhibition of human mitochondrial aldehyde dehydrogenase (ALDH-2) [4]: potent and selective inhibitor; suppression of ethanol consumption in rats [5]: confirmed; inhibition of DOPAC formation [6]: potently inhibit; suppression of hamster ethanol intake [2]: 64%
"CC[N+](CC)(CC)CCCCCCOc1ccc2c(=O)c(-c3ccc(O)cc3)coc2c1 [Compound 11, 7-O-(triethyl-6-aminohexyl)-daidzein]",,80 nM,,,"Ki ([1]; read-out: Ki, human ALDH-2): 5 nM"
"NCCCCCCOc1ccc2c(=O)c(-c3ccc(O)cc3)coc2c1 [Compound 13, 7-O-(6-aminohexyl)-daidzein]",36 nM,600 nM,did not suppress ethanol intake,,
"O=C(CCl)Oc1ccc2c(=O)c(-c3ccc(O)cc3)coc2c1 [Compound 16, 7-O-daidzein-2-chloroacetate]",1060 nM,10600 nM,,,"ALDH-2 inhibitory potency, in words [1]: less potent inhibitors relative to daidzin"
"O=c1c(-c2ccc(O)cc2)coc2c([C@@H]3O[C@H](CO)[C@@H](O)[C@H](O)[C@H]3O)c(O)ccc12 [Compound 20, Puerarine]",,,,0%,"inhibition of 5-HIAA formation [3]: does not inhibit 5-HIAA formation; suppression of ethanol consumption in rats [5]: suppresses ethanol consumption in rats; inhibition of 5-HIAA formation [7]: does inhibit 5-HIAA formation; suppression of ethanol consumption in hamsters, in words ([2]; hamsters): not hamsters; suppression of hamster ethanol intake [2]: do not exert any significant effect on ethanol intake"
"CC(Br)CCCCC(=O)Oc1ccc2c(=O)c(-c3ccc(O)cc3)coc2c1 (centres unmarked) [Compound 14, 7-O-daidzein-6-bromoheptanoate]",20 nM,260 nM,,,"ALDH-2 inhibitory potency, in words [1]: less potent than 7-O-(6-bromohexyl)-daidzein"
C=CCOc1ccc2c(=O)c(-c3ccc(O)cc3)coc2c1 [allyl],,,did not suppress ethanol intake,,
